Experimental data taken from BindingDB's records for patent US20250353833 (Universiteit Antwerpen, 2025).

How the values were obtained:
Assay in all cases: Biochemical Evaluation
Dipeptidyl peptidase 2 = Dipeptidyl peptidase 2 (Homo sapiens, UniProt Q9UHL4)
Description: (§1) Table 1 and 2: The compounds were biochemically evaluated against a panel consisting of all enzymatically active DASH enzymes (DPP4, DPP8, DPP9, DPP2, FAP) and PREP.

Prolyl endopeptidase = biological target: T1, Prolyl endopeptidase (Homo sapiens, UniProt P48147)
T1 sequence (P48147 whole entry): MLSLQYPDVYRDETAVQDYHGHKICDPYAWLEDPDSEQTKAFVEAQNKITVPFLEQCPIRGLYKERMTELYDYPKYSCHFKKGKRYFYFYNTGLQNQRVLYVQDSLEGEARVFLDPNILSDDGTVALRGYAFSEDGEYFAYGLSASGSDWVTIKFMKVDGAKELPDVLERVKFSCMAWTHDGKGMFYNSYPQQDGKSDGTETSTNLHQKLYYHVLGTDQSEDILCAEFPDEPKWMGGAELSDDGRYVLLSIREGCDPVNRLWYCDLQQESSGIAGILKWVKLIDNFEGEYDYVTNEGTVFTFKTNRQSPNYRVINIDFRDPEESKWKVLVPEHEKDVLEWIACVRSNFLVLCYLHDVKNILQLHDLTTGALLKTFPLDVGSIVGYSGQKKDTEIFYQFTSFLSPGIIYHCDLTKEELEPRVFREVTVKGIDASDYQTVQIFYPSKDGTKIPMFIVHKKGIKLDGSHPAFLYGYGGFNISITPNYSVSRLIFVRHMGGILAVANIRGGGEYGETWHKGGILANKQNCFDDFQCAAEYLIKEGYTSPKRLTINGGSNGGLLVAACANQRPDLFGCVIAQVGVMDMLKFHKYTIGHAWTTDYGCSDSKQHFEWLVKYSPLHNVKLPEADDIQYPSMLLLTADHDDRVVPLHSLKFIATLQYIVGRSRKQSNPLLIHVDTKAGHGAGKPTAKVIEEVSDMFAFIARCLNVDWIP
Description: as §1

Prolyl endopeptidase FAP = biological target: T2, Prolyl endopeptidase FAP (Homo sapiens, UniProt Q12884)
T2 sequence (Q12884 whole entry): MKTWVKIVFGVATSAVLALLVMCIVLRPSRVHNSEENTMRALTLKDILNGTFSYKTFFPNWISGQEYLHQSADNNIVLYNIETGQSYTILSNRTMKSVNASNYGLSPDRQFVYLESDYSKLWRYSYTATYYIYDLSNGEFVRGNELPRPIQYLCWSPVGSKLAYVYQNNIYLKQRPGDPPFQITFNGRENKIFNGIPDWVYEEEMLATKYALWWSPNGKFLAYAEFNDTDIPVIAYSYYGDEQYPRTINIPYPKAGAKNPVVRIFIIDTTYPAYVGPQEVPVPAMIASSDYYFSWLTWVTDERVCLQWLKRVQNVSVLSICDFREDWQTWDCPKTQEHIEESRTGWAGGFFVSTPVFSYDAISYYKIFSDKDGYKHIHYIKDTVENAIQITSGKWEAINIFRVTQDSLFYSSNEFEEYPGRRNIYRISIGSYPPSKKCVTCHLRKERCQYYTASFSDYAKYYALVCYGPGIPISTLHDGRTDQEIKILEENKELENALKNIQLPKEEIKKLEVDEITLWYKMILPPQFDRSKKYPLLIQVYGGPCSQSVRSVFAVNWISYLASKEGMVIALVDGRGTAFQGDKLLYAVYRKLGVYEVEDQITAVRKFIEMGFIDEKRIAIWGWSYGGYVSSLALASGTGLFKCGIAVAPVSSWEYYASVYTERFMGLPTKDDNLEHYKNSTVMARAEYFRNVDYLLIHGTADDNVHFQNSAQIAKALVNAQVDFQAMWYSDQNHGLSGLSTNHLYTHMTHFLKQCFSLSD
Description: as §1

IC50 (Dipeptidyl peptidase 2): > 5 µM | IC50 (Prolyl endopeptidase): > 10 µM | IC50 (Prolyl endopeptidase FAP): > 10 µM
Structure (SMILES): CC(C)(C)OC(=O)NC12CC3CC(CC(N)(C3)C1)C2 [US20250353833, Compound 4]
